Assay [1] can be described thus: Static ozone deterioration test, Example 1 natural rubber compound (pale crape No. 1). As to conditions: Table 2, static, 20 % elongation, 2 parts added, ozone 35 ± 5 pphm, 50 ± 10°C. How it is done:
(§1) Two parts of each of the present compounds in Table 1 (sample numbers A to H) and, as a counterpart, Antiozonant AFD (a registered trademark of Bayer Co. Ltd.) represented by sample number I were individually mixed thoroughly with the following rubber compound,
(§2) and each resulting mixture was well milled on a 2-roll mill of 10 inches in diameter and then vulcanized thereon at 140°C. for 20 minutes. A blank test was also carried out at the same time for comparison, using the rubber compound alone above mentioned.
(§3) The static and dynamic ozone deterioration tests were made on the test pieces on the Ozone Weather-O-Meter produced by Toyo Rika Co. Ltd. In the static test, the Dumbbel No. 2 test pieces were kept at a 20 % elongation in the stream of ozone during the test, and during the latter test, the test pieces were given repeated elongation of from 0 up to 20 % once a second in the stream of ozone.
(§4) The tests were carried out under the condition that the ozone concentration be 35 ± 5 pphm and the test temperature be 50 ± 10°C., and the time required for the generation of visually observable cracks on the surface of the vulcanized rubber was taken as a crack-generating time which was used as the measure of ozone-resistance.

Assay [2] can be described thus: Dynamic ozone deterioration test, Example 1 natural rubber compound (pale crape No. 1). As to conditions: Table 3, dynamic, repeated elongation 0 up to 20 % once a second, 2 parts added, ozone 35 ± 5 pphm, 50 ± 10°C. As to the method: as §1, §2, §3, §4
The nature of assay [3]: Static ozone deterioration test, Example 2 SBR compound. The conditions noted are these: Table 4, static, 20 % elongation, 2 parts added, ozone 35 ± 5 pphm, 50 ± 10°C. As to the method: as §3, §4
(§5) Two parts of each of the present compounds in Table 1 (sample numbers A to H) and, as a counterpart, Antiozonant AFD represented by sample number I were individually mixed thoroughly with the following rubber compound,
(§6) and each resulting mixture was well milled on a 2-roll mill of 10 inches in diameter and then vulcanized thereon at 150°C. for 30 minutes. A blank test was also carried out at the same time for comparison, using the rubber compound alone above mentioned.

A short description of assay [4]: Dynamic ozone deterioration test, Example 2 SBR compound. As to conditions: Table 5, dynamic, repeated elongation 0 up to 20 %, 2 parts added, ozone 35 ± 5 pphm, 50 ± 10°C. As to the method: as §3, §4, §5, §6
Assay [5] can be described thus: Static ozone deterioration test, Example 3 chloroprene rubber compound. As to conditions: Table 6, static, 20 % elongation, 1.5 parts added, ozone 90 ± 5 pphm, 50 ± 10°C. How it is done: as §3
(§7) be 50 ± 10°C., and the time required for the generation of visually observable cracks on the surface of the vulcanized rubber was taken as a crack-generating time which was used as the measure of ozone-resistance. […]
(§8) A blank test was also carried out at the same time for comparison, using the rubber compound alone above mentioned.

Assay [6] in a line: Dynamic ozone deterioration test, Example 3 chloroprene rubber compound. As to conditions: Table 7, dynamic, repeated elongation 0 up to 20 %, 1.5 parts added, ozone 90 ± 5 pphm, 50 ± 10°C. How it is done: as §3, §7, §8

With `CC(C)SCCC#N` [B], the Crack-generating time was determined as 15 h in assay [1]; 16 h in assay [2]; 11 h in assay [3]; 14 h in assay [4]; 175 h in assay [5]; 185 h in assay [6].
Turning to `CC(C#N)CSCC(C)C#N` (stereo not drawn) [C], the Crack-generating time in assay [1] turned out to be 18 h; in assay [2], 20 h; in assay [3] it was 13 h; in assay [4], 18 h; in assay [5], 190 h; in assay [6] it was 210 h.
`N#CCCCSCCCC#N` [D]: the Crack-generating time amounted to 19 h in assay [1]; 22 h in assay [2]; 15 h in assay [3]; 19 h in assay [4]; 195 h in assay [5]; 215 h in assay [6].
As for `CCC(CCCC#N)CSCC(CC)CCCC#N` (stereo not drawn) [E], the Crack-generating time in assay [1] is 16 h; in assay [2], 16 h; in assay [3], 11 h; in assay [4], 15 h; in assay [5], 180 h; in assay [6], 190 h.
As for `CCCCCCCCCCCCCCCCCCSCCC#N` [F], the Crack-generating time turned out to be 14 h in assay [1]; 15 h in assay [2]; 10 h in assay [3]; 13 h in assay [4]; 170 h in assay [5]; 180 h in assay [6].
For `N#CCCSCCC#N` [Sample A], the Crack-generating time in assay [1] came out at 20 h; in assay [2], 24 h; in assay [3], 16 h; in assay [4] it was 21 h; in assay [5], 200 h; in assay [6] it was 220 h.

These data come from patent publication US3956234A, “Inhibiting ozone deterioration of rubbers” (Sumitomo Chemical Company, Limited, priority 1973, dated 1976).
